# Laboratory results taken from patent US10370343B2, “[6,6] Fused bicyclic HDAC8 inhibitors” (FORMA Therapeutics, Inc., priority 2015, dated 2019).
# Where two headings read alike, the source gives them in different places.
# Target: T1, Full length human recombinant HDAC8 protein (Homo sapiens, UniProt Q9BY41)
# T1 construct: Full length human recombinant HDAC8 protein was expressed in baculoviral system; made in house
# T1 sequence (Q9BY41 1-377): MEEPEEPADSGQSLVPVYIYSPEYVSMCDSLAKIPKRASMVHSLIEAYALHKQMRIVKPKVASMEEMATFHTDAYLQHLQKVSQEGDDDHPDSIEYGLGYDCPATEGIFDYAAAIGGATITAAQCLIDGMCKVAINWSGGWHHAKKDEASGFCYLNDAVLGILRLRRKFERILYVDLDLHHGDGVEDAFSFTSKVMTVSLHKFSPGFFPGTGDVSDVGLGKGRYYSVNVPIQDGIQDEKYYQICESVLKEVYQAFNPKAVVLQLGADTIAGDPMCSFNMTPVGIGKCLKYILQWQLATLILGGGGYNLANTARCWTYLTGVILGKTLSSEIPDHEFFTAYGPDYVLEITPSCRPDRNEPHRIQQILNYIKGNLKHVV
# Experiment: In vitro histone deacetylase assay: enzymatic HDAC8 electrophoretic mobility shift assay
# Format: biochemical
# Description: The enzymatic HDAC8 assay was performed using electrophoretic mobility shift assay. Full length human recombinant HDAC8 protein was expressed in baculoviral system and purified by affinity chromatography. The enzymatic reactions were assembled in 384 well plates in a total volume of 25 μL in a reaction buffer composing: 100 mM HEPES, pH7.5, 25 mM KCl, 0.1% bovine serum albumin, 0.01% Triton X-100, 1% DMSO (from compounds) 2 μM of the fluorescently labeled peptide substrate and enzyme. The enzyme was added at a final concentration of 1 nM. The peptide substrate RHKK(Ac)—NH2 was used. The compounds were tested at 12 concentrations spaced by 3× dilution intervals. Negative control samples (0%-inhibition in the absence of inhibitor) and positive control samples (100%-inhibition) were assembled in replicates of four in each assay plate. The reactions were incubated at 25° C. and quenched by the addition of 45 μL of termination buffer (100 mM HEPES, pH 7.5, 0.01% Triton X-100, 0.05% SDS).
# The terminated assay plates were analyzed on LabChip® 3000 microfluidic electrophoresis instrument (Perkin Elmer/Caliper Life Sciences). The fluorescence intensity of the electrophoretically separated de-acetylated product and substrate peptide was measured. Activity in each sample was determined as the product to sum ratio (PSR): P/(S+P), where P is the peak height of the product peptide and S is the peak height of the substrate peptide. Percent inhibition (Pinh) is determined using the following equation: Pinh=(PSR0%−PSRinh)/(PSR0%−PSR100%)*100, where PSRinh is the product sum ratio in the presence of inhibitor, PSR0% is the average product sum ration in the absence of inhibitor and PSR100% is the average product sum ratio in 100%-inhibition control samples. The IC50 values of inhibitors were determined by fitting the %-inhibition curves with 4 parameter dose-response model using XLfit 4 software.
# [1] = electrophoretic mobility shift assay, enzyme 1 nM, 2 μM fluorescently labeled peptide substrate RHKK(Ac)-NH2, 25° C., 12 concentrations, read-out: HDAC8 IC50
IC50 [1] [µM],IC50 [µM],Structure (SMILES)
< 0.025,,"O=C(NO)c1ccc2c(c1)N(Cc1ccc(C(F)(F)F)cc1)C(=O)CO2 [Compound I-35, N-hydroxy-3-oxo-4-(4-(trifluoromethyl)benzyl)-3,4-dihydro-2H-benzo[b][1,4]oxazine-6-carboxamide]"
0.1 to 1,,"C#CCN1C(=O)COc2ccc(C(=O)NO)cc21 [Compound I-40, N-hydroxy-3-oxo-4-(prop-2-yn-1-yl)-3,4-dihydro-2H-benzo[b][1,4]oxazine-6-carboxamide]"
0.1 to 1,,"O=C(NO)c1ccc2c(c1)N(C1CCCC1)C(=O)CO2 [Compound I-42, 4-cyclopentyl-N-hydroxy-3-oxo-3,4-dihydro-2H-benzo[b][1,4]oxazine-6-carboxamide]"
0.025 to 0.1,,"CC(C)=CCCN1C(=O)COc2ccc(C(=O)NO)cc21 [Compound I-44, N-hydroxy-4-(4-methylpent-3-en-1-yl)-3-oxo-3,4-dihydro-2H-benzo[b][1,4]oxazine-6-carboxamide]"
0.1 to 1,,"O=C(NO)c1ccc2c(c1)N(CC1CCOCC1)C(=O)CO2 [Compound I-48, N-hydroxy-3-oxo-4-((tetrahydro-2H-pyran-4-yl)methyl)-3,4-dihydro-2H-benzo[b][1,4]oxazine-6-carboxamide]"
0.1 to 1,,"O=C(NO)c1ccc2c(c1)N(CCN1CCCS1(=O)=O)C(=O)CO2 [Compound I-52, 4-(2-(1,1-dioxidoisothiazolidin-2-yl)ethyl)-N-hydroxy-3-oxo-3,4-dihydro-2H-benzo[b][1,4]oxazine-6-carboxamide]"
0.1 to 1,,"O=C(NO)c1ccc2c(c1)N(Cc1ccccn1)C(=O)CO2 [Compound I-61, N-hydroxy-3-oxo-4-(pyridin-2-ylmethyl)-3,4-dihydro-2H-benzo[b][1,4]oxazine-6-carboxamide]"
0.1 to 1,,"COc1ccccc1CN1C(=O)COc2ccc(C(=O)NO)cc21 [Compound I-63, N-hydroxy-4-(2-methoxybenzyl)-3-oxo-3,4-dihydro-2H-benzo[b][1,4]oxazine-6-carboxamide]"
< 0.025,,"CC(C)(C)c1ccc(CN2C(=O)COc3ccc(C(=O)NO)cc32)cc1 [Compound I-70, 4-(4-(tert-butyl)benzyl)-N-hydroxy-3-oxo-3,4-dihydro-2H-benzo[b][1,4]oxazine-6-carboxamide]"
< 0.025,,"O=C(NO)c1ccc2c(c1)N(Cc1ccc(F)c(F)c1)C(=O)CO2 [Compound I-71, 4-(3,4-difluorobenzyl)-N-hydroxy-3-oxo-3,4-dihydro-2H-benzo[b][1,4]oxazine-6-carboxamide]"
< 0.025,,"O=C(NO)c1ccc2c(c1)N(Cc1cc(C(F)(F)F)ccc1F)C(=O)CO2 [Compound I-73, 4-(2-fluoro-5-(trifluoromethyl)benzyl)-N-hydroxy-3-oxo-3,4-dihydro-2H-benzo[b][1,4]oxazine-6-carboxamide]"
< 0.025,,"O=C(NO)c1ccc2c(c1)N(Cc1cccc(-c3ccccc3)c1)C(=O)CO2 [Compound I-75, 4-([1,1′-biphenyl]-3-ylmethyl)-N-hydroxy-3-oxo-3,4-dihydro-2H-benzo[b][1,4]oxazine-6-carboxamide]"
0.1 to 1,,"COc1ccc(CN2CCS(=O)(=O)c3cc(C(=O)NO)ccc32)cc1 [Compound I-80, N-hydroxy-4-(4-methoxybenzyl)-3,4-dihydro-2H-benzo[b][1,4]thiazine-7-carboxamide-1,1-dioxide]"
0.1 to 1,,"CC1CN(Cc2ccccc2)c2cc(C(=O)NO)ccc2O1 (stereo not drawn) [Compound I-83, 4-benzyl-N-hydroxy-2-methyl-3,4-dihydro-2H-benzo[b][1,4]oxazine-6-carboxamide]"
0.1 to 1,,"CC1CN(Cc2ccc(S(C)(=O)=O)cc2)c2cc(C(=O)NO)ccc2O1 (stereo not drawn) [Compound I-85, N-hydroxy-2-methyl-4-(4-(methylsulfonyl)benzyl)-3,4-dihydro-2H-benzo[b][1,4]oxazine-6-carboxamide]"

# Second part, the compound before the results:
Structure (SMILES),IC50 [1] [µM],IC50 [µM]
"CCCN1C(=O)COc2ccc(C(=O)NO)cc21 [Compound I-39, N-hydroxy-3-oxo-4-propyl-3,4-dihydro-2H-benzo[b][1,4]oxazine-6-carboxamide]",0.1 to 1,
"C=CCN1C(=O)COc2ccc(C(=O)NO)cc21 [Compound I-41, 4-allyl-N-hydroxy-3-oxo-3,4-dihydro-2H-benzo[b][1,4]oxazine-6-carboxamide]",0.1 to 1,
"COCCN1C(=O)COc2ccc(C(=O)NO)cc21 [Compound I-43, N-hydroxy-4-(2-methoxyethyl)-3-oxo-3,4-dihydro-2H-benzo[b][1,4]oxazine-6-carboxamide]",0.1 to 1,
"CCC(C)N1C(=O)COc2ccc(C(=O)NO)cc21 (stereo not drawn) [Compound I-46, 4-(sec-butyl)-N-hydroxy-3-oxo-3,4-dihydro-2H-benzo[b][1,4]oxazine-6-carboxamide]",0.1 to 1,
"O=C(NO)c1ccc2c(c1)N(CC1CCS(=O)(=O)CC1)C(=O)CO2 [Compound I-49, 4-((1,1-dioxidotetrahydro-2H-thiopyran-4-yl)methyl)-N-hydroxy-3-oxo-3,4-dihydro-2H-benzo[b][1,4]oxazine-6-carboxamide]",0.1 to 1,
"CN(C(=O)CN1C(=O)COc2ccc(C(=O)NO)cc21)C1CC1 [Compound I-51, 4-(2-(cyclopropyl(methyl)amino)-2-oxoethyl)-N-hydroxy-3-oxo-3,4-dihydro-2H-benzo[b][1,4]oxazine-6-carboxamide]",,0.1 to 1
"O=C(NO)c1ccc2c(c1)N(CCOc1ccc(C(F)(F)F)cc1)C(=O)CO2 [Compound I-55, N-hydroxy-3-oxo-4-(2-(4-(trifluoromethyl)phenoxy)ethyl)-3,4-dihydro-2H-benzo[b][1,4]oxazine-6-carboxamide]",0.025 to 0.1,
"CN(C)S(=O)(=O)c1ccc(OCCN2C(=O)COc3ccc(C(=O)NO)cc32)cc1 [Compound I-56, 4-(2-(4-(N,N-dimethylsulfamoyl)phenoxy)ethyl)-N-hydroxy-3-oxo-3,4-dihydro-2H-benzo[b][1,4]oxazine-6-carboxamide]",0.025 to 0.1,
"CC(C)CN1C(=O)COc2ccc(C(=O)NO)cc21 [Compound I-57, N-hydroxy-4-isobutyl-3-oxo-3,4-dihydro-2H-benzo[b][1,4]oxazine-6-carboxamide]",0.1 to 1,
"O=C(NO)c1ccc2c(c1)N(Cc1ccccc1C(F)(F)F)C(=O)CO2 [Compound I-65, N-hydroxy-3-oxo-4-(2-(trifluoromethyl)benzyl)-3,4-dihydro-2H-benzo[b][1,4]oxazine-6-carboxamide]",0.1 to 1,
"O=C(NO)c1ccc2c(c1)N(Cc1ccccc1OC(F)(F)F)C(=O)CO2 [Compound I-66, N-hydroxy-3-oxo-4-(2-(trifluoromethoxy)benzyl)-3,4-dihydro-2H-benzo[b][1,4]oxazine-6-carboxamide]",0.1 to 1,
"CC(c1ccccc1)N1C(=O)COc2ccc(C(=O)NO)cc21 (stereo not drawn) [Compound I-67, N-hydroxy-3-oxo-4-(1-phenylethyl)-3,4-dihydro-2H-benzo[b][1,4]oxazine-6-carboxamide]",0.025 to 0.1,
"O=C(NO)c1ccc2c(c1)N(Cc1ccccc1F)C(=O)CO2 [Compound I-69, 4-(2-fluorobenzyl)-N-hydroxy-3-oxo-3,4-dihydro-2H-benzo[b][1,4]oxazine-6-carboxamide]",< 0.025,
"Cc1ccc(C(F)(F)F)cc1CN1C(=O)COc2ccc(C(=O)NO)cc21 [Compound I-72, N-hydroxy-4-(2-methyl-5-(trifluoromethyl)benzyl)-3-oxo-3,4-dihydro-2H-benzo[b][1,4]oxazine-6-carboxamide]",< 0.025,
"CCCCCN1CCOc2ccc(C(=O)NO)cc21 [Compound I-78, N-hydroxy-4-pentyl-3,4-dihydro-2H-benzo[b][1,4]oxazine-6-carboxamide]",0.025 to 0.1,
"O=C(NO)c1ccc2c(c1)N(Cc1ccc(C(F)(F)F)cc1)CCS2(=O)=O [Compound I-79, N-hydroxy-4-(4-(trifluoromethyl)benzyl)-3,4-dihydro-2H-benzo[b][1,4]thiazine-6-carboxamide 1,1-dioxide]",< 0.025,
"O=C(NO)c1ccc2c(c1)N(Cc1cccc(C(F)(F)F)c1)CCS2(=O)=O [Compound I-81, N-hydroxy-4-(3-(trifluoromethyl)benzyl)-3,4-dihydro-2H-benzo[b][1,4]thiazine-6-carboxamide-1,1-dioxide]",< 0.025,
"COc1ccc(CN2CC(C)Oc3ccc(C(=O)NO)cc32)cc1 (stereo not drawn) [Compound I-84, N-hydroxy-4-(4-methoxybenzyl)-2-methyl-3,4-dihydro-2H-benzo[b][1,4]oxazine-6-carboxamide]",0.025 to 0.1,
